# Measurements from the kinase profiling compilation of Christmann-Franck et al. (2016).
# Columns and labels:
# Experiment in all cases: radiometric filter-binding kinase assay, Kinase HotSpot
# Settings in all cases: compound 0.5 µM; ATP 10 µM
# [1] = system: FLT4 (human), P35916 [Q890H]
# [2] = system: MKNK1 (human), Q9BUB5 [T385D; 165-205 del]
# [3] = system: PRKCQ (human), Q04759 [P330L]
# [4] = system: MAP2K6 (human), P52564 [S207E/T211E]
# MAP2K6 (human), P52564 [S207E/T211E], sequence (P52564 whole entry S207E/T211E, looked up): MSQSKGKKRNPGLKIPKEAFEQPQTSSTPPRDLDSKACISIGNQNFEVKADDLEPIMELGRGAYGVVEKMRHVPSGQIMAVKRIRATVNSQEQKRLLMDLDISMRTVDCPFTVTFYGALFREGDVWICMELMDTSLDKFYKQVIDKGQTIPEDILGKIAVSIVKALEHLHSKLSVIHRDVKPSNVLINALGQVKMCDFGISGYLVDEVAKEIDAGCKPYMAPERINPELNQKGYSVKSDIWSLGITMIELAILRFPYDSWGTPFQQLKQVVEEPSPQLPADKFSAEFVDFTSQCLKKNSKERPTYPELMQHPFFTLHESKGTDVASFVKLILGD
# PRKCQ (human), Q04759 [P330L], sequence (Q04759 whole entry P330L, looked up): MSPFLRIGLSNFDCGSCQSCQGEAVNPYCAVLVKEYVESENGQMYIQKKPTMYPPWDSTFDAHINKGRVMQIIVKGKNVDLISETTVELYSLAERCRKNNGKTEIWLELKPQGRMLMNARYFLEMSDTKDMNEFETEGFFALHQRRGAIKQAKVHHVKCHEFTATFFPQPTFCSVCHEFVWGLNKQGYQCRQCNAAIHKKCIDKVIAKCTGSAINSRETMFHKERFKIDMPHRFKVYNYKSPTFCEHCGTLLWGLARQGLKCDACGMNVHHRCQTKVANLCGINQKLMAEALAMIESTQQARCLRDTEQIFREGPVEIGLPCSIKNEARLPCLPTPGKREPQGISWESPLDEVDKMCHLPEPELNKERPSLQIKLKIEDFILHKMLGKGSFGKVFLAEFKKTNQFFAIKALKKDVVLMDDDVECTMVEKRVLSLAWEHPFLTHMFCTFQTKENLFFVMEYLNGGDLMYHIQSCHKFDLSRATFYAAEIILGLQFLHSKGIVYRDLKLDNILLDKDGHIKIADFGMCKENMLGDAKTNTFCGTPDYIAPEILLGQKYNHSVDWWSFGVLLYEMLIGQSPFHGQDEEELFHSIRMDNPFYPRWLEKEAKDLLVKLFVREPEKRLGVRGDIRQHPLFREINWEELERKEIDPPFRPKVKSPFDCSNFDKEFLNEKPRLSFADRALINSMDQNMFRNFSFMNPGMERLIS
# MKNK1 (human), Q9BUB5 [T385D; 165-205 del], sequence (Q9BUB5 whole entry, looked up, stated change not applied): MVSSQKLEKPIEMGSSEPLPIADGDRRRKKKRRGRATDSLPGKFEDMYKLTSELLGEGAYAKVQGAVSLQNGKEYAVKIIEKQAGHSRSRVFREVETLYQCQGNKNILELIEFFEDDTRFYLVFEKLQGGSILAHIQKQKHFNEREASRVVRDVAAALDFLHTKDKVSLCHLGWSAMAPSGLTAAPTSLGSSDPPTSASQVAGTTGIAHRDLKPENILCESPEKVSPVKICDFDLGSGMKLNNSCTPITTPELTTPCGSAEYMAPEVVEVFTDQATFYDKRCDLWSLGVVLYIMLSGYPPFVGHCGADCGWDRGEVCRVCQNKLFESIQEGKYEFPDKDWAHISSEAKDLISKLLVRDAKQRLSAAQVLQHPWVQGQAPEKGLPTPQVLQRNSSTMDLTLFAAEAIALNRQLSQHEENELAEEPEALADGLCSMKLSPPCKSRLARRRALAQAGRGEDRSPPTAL
# FLT4 (human), P35916 [Q890H], sequence (P35916 whole entry, looked up, stated change not applied): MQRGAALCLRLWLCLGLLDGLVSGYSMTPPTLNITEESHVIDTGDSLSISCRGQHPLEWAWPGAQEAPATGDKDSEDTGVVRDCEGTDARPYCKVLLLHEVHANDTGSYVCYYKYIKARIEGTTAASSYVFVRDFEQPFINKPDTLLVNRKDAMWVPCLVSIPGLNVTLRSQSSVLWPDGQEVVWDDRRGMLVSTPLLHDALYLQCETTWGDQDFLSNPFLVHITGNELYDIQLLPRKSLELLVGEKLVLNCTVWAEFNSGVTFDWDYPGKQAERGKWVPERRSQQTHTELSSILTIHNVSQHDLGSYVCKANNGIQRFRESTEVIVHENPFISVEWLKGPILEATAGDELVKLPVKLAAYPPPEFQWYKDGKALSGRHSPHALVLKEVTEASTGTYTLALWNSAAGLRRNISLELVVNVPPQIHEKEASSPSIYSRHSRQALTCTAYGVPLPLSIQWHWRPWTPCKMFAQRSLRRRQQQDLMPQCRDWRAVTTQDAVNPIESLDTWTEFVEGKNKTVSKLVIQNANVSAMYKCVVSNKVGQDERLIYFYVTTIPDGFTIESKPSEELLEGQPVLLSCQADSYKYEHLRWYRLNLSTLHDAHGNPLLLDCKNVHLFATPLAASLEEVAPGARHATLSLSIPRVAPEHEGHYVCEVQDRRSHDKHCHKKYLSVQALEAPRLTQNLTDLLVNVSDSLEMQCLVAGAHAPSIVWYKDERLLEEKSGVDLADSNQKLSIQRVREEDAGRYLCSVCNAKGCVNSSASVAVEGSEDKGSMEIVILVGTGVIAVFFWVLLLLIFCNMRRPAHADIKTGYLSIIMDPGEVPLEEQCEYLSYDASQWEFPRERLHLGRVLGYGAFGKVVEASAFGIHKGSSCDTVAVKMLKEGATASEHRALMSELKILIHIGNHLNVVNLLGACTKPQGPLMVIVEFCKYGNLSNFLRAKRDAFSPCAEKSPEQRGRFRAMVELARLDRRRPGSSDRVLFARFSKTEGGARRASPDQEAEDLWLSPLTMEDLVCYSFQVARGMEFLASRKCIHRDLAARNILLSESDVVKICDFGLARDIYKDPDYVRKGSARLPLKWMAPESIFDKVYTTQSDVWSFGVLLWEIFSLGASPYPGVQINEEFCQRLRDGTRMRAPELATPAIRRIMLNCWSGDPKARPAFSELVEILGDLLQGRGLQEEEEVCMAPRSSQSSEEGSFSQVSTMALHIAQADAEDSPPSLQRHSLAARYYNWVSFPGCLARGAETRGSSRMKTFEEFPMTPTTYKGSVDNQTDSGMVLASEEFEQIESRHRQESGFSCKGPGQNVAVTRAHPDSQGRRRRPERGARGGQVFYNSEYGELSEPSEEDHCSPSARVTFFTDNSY
Compound,residual activity [1],residual activity [2],residual activity [3],residual activity [4]
CC#CC(=O)Nc1cc2c(Nc3ccc(F)c(Cl)c3)ncnc2cn1,92.8%,89.5%,89.3%,100%
Oc1ccc(-c2nc(-c3ccc(F)cc3)c(-c3ccncc3)[nH]2)cc1,101%,102%,115%,109%
NC(=O)c1ccc(N(C(N)=O)c2c(F)cccc2F)nc1-c1ccc(F)cc1F,97.5%,91.4%,85.1%,96.5%
Nc1nccc(-c2c(-c3ccc(F)cc3)ncn2C2CCNCC2)n1,116%,99%,107%,106%
COc1ccc(OC)c2c(=S)c3ccccc3[nH]c12,98.1%,115%,98.9%,89.9%
c1ccc(-c2cnc(Nc3ccc(OCCN4CCCC4)cc3)s2)cc1,64.4%,64.7%,91.2%,93.6%
Nc1nc(Nc2ccc(S(N)(=O)=O)cc2)nn1C(=O)c1c(F)cccc1F,38%,90.9%,114%,90.5%
c1ccc(-c2n[nH]c3c2oc2ccccc23)cc1,108%,96.2%,83.8%,92.9%
O=c1[nH]c2ccccc2n1C1CCN(Cc2ccc(-c3nc4cc5[nH]cnc5cc4nc3-c3ccccc3)cc2)CC1,98.7%,104%,96.4%,101%
COc1cc2ncnc(N3CCN(C(=O)Nc4ccc(Oc5ccccc5)cc4)CC3)c2cc1OC,101%,94.9%,97.3%,96%
O=C1Cc2c([nH]c3ccc([N+](=O)[O-])cc23)-c2ccccc2N1,77.8%,76.9%,98.2%,98.3%
CC(=O)c1ccc(N2CCOCC2)cc1O,112%,102%,99.5%,94.2%
CC(C)n1cnc2c(Nc3cccc(Cl)c3)nc(NCCO)nc21,92.6%,98.7%,91.4%,88.9%
CC(C)[C@H](CO)Nc1nc(Nc2cc(N)cc(Cl)c2)c2ncn(C(C)C)c2n1,80.7%,99.1%,119%,92.5%
N#CCCc1ccc2c(c1)-c1[nH]c3ccc([N+](=O)[O-])cc3c1CC(=O)N2,66.5%,66.7%,111%,97.2%
COc1ccc(CNC(=O)Nc2ncc([N+](=O)[O-])s2)cc1,91.2%,98.4%,96.9%,85.9%
CCN(CC)CCCCN1c2ccccc2Oc2ccc(Cl)cc21,98.8%,95.6%,97.5%,102%
CC(C)c1nn(-c2c(Cl)cccc2Cl)c2nc(Cc3ccc(OCCO)cc3)nc(O)c12,103%,110%,97.3%,92.7%
CCC(=O)Nc1ccc2ncnc(Nc3cccc(Br)c3)c2c1,91.5%,82.8%,96.3%,94.5%
CCc1nc(-c2ccc(OC)cc2)[nH]c1-c1ccncc1,123%,115%,121%,110%
O=c1c2ccccc2[nH]c(=S)n1CCN1CCC(=C(c2ccc(F)cc2)c2ccc(F)cc2)CC1,107%,101%,92.2%,102%
